These compounds were tested against Protein Wnt-3a (Human, UniProt P56704) (assay: WNT pathway reporter gene assay).
Protocol: NIH3T3 mouse fibroblast cells (American Type Culture Collection, Manassas, Va.) were transfected with a plasmid containing a luciferase gene driven by 5 copies of TCF elements. Stale cells selected with 1 μg/mL of Zeocin (Gibco/Invitrogen, Carlsbad, Calif.) are cultured in Dulbecco's modified Eagle's medium (Invitrogen, Carlsbad, Calif.) supplemented with 10% FBS (Invitrogen), 50 unit/mL penicillin and 50 μg/mL of streptomycin (Invitrogen) at 37° C. with 5% CO2 in air atmosphere. […] After 16 hours, the firefly luciferase activities are measured with the Steady-Glo Luciferase Assay System (Promega). The cells were treated with different concentrations of compounds of this invention during the co-culture. […] To normalize for cell quantity and viability, CellTiter Glo assay is next performed in a duplicate plate.

Chain of Protein Wnt-3a (P56704 whole entry): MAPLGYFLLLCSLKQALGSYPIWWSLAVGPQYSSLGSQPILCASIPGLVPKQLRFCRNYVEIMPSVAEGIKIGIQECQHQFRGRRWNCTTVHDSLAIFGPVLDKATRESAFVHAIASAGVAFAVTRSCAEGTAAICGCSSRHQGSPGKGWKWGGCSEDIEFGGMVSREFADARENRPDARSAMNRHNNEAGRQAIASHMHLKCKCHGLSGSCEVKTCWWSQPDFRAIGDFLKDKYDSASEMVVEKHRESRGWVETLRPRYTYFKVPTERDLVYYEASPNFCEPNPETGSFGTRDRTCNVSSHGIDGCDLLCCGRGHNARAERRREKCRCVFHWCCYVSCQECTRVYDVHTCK

Row | SMILES | IC50
1 | Cc1cc(-c2ccc(CNc3nccc4cc(-c5ccnc(C)c5)ncc34)cc2)ccn1 [US10087181, Compound 1] | < 3 nM
2 | Cc1cc(-c2cc3ccnc(NCc4ccc(-c5ccnc(C)c5)c(C)c4)c3cn2)ccn1 [US10087181, Compound 2] | < 3 nM
3 | Cc1cc(-c2cc3ccnc(NCc4ccc(-c5ccnc(F)c5)c(F)c4)c3cn2)ccn1 [US10087181, Compound 28] | < 3 nM
4 | Cc1cc(-c2ccc(CNc3nccc4cc(-c5cnccn5)ncc34)cc2)ccn1 [US10087181, Compound 35] | < 3 nM
5 | Cc1cc(-c2ncc(CNc3nccc4cc(-c5cnccn5)ccc34)cc2C)ccn1 [US10087181, Compound 70] | < 3 nM
